Experimental findings from patent publication US6706664B1, “Benzoxazole compounds, process for the preparation thereof and herbicides” (UBE Industries, Ltd., priority 1999, dated 2004) are described below.

What all share (set-up): key: 0: normal development; 1: Less damaged; 2: Slightly damaged; 3: Moderately damaged; 4: Severely damaged; 5: All killed
The test system of one assay is solgum. The experiment in a line: Soil treatment test for upland field. Format: in vivo. Particulars: 500 g/ha, glass house 25° C., 3 weeks. The method in brief: (§1)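 Compounds were formulated as wettable powders and applied pre-emergence to the surface of freshly sown alluvial soil at 500 g/ha. After three weeks in a glass house averaging 25° C, damage was rated from 0 (normal development) to 5 (all killed).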

A further assay concerns corn. The assay can be described thus: Soil treatment test for upland field. It counts as in vivo. Particulars: 500 g/ha, glass house 25° C., 3 weeks. The method in brief:
as §1

For another assay, the system named is soybean. The experiment in a line: Soil treatment test for upland field. Format: in vivo. Conditions: 500 g/ha, glass house 25° C., 3 weeks. The method in brief: as §1
For another assay, the system named is sugar beat. The experiment in a line: Soil treatment test for upland field. It counts as in vivo. Conditions: 500 g/ha, glass house 25° C., 3 weeks. The method in brief: as §1
The subject of a further assay is wheat. The experiment in a line: Soil treatment test for upland field. Conditions: 500 g/ha, glass house 25° C., 3 weeks. Format: in vivo. The method in brief: as §1
Another assay relates to cotton. The experiment in a line: Soil treatment test for upland field. Particulars: 500 g/ha, glass house 25° C., 3 weeks. It counts as in vivo. The method in brief:
as §1

Assay [1] concerns velvetleaf. The experiment in a line: Foliar spread test for upland field. Format: in vivo, Abutilon theophrasti. Conditions: foliar spray 500 ppm, 3 weeks, rank vs non-treated. The method in brief: (§2)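 Post-emergence foliar spray, 500 ppm (wettable powder in water + 0.5% surfactant), on ~2-week-old plants grown in volcanic ash soil; glasshouse, avg 25° C, 3 wk; visual damage score 0–5.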

For a further assay, the system named is monochoria. The assay can be described thus: Herbicidal test for paddy field. Particulars: paddy field pot, 500 g/ha dropwise at 1.5 leaf stage of barnyardgrass, 3 weeks, rank vs non-treated. It counts as in vivo, Monochoria vaginalis. The method in brief:
(§3)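 Ube alluvial soil in pots flooded to 3 cm water depth, sown with seeds or tubers. Wettable powder diluted in water with 0.05% surfactant was dripped onto the water at 500 g/ha when barnyardgrass reached the 1.5-leaf stage. After 3 weeks in a glasshouse at an average of 25° C, damage was scored 0 (normal) to 5 (all killed) against untreated pots.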

Assay [2] concerns blackgrass. The experiment in a line: Foliar spread test for upland field. Particulars: foliar spray 500 ppm, 3 weeks, rank vs non-treated. It counts as in vivo, Alopecurus aegualis. The method in brief: as §2
The test system of assay [3] is annual bluegrass. The assay can be described thus: Soil treatment test for upland field. Format: in vivo, Poa annua. Particulars: 500 g/ha, glass house 25° C., 3 weeks. The method in brief: as §1
Another assay relates to green foxtail. The assay can be described thus: Soil treatment test for upland field. Conditions: 500 g/ha, glass house 25° C., 3 weeks. It counts as in vivo, Setaria viridis. The method in brief: as §1
Assay [4] concerns velvetleaf. The experiment in a line: Soil treatment test for upland field. Conditions: 500 g/ha, glass house 25° C., 3 weeks. Format: in vivo, Abutilon theophrasti. The method in brief:
as §1

The next assay concerns barnyardgrass. The assay can be described thus: Herbicidal test for paddy field. It counts as in vivo, Echinochloa crusgalli. Particulars: paddy field pot, 500 g/ha dropwise at 1.5 leaf stage of barnyardgrass, 3 weeks, rank vs non-treated. The method in brief: as §3
For another assay, the system named is livid amaranth. The assay can be described thus: Foliar spread test for upland field. It counts as in vivo, Amaranthus lividus. Conditions: foliar spray 500 ppm, 3 weeks, rank vs non-treated. The method in brief:
as §2

Assay [5] has as its system annual bluegrass. The assay can be described thus: Foliar spread test for upland field. Format: in vivo, Poa annua. Conditions: foliar spray 500 ppm, 3 weeks, rank vs non-treated. The method in brief:
as §2

Assay [6] has as its system blackgrass. The experiment in a line: Soil treatment test for upland field. Particulars: 500 g/ha, glass house 25° C., 3 weeks. It counts as in vivo, Alopecurus aegualis. The method in brief:
as §1

Assay [7] concerns common lambsquartes. The experiment in a line: Soil treatment test for upland field. Format: in vivo, Chenopodium album. Particulars: 500 g/ha, glass house 25° C., 3 weeks. The method in brief:
as §1

Assay [8] concerns common lambsquartes. The experiment in a line: Foliar spread test for upland field. Particulars: foliar spray 500 ppm, 3 weeks, rank vs non-treated. Format: in vivo, Chenopodium album. The method in brief: as §2
The subject of another assay is morning glory. The experiment in a line: Foliar spread test for upland field. It counts as in vivo, Ipomoea spps. Conditions: foliar spray 500 ppm, 3 weeks, rank vs non-treated. The method in brief:
as §2

For `CCC(Oc1ccc(F)c(C(F)(F)F)c1)c1nc2cc(Cl)c(C)cc2o1` (stereo not shown) [Compound 340], in the assay on solgum, the “Effects Solgum” value came to 3. In the assay on corn, the “Effects Corn” value was 2. The “Effects Soybean” value with soybean is 0. Further, in the assay on sugar beat, the “Effects Sugar beat” value is on record as 5. Moreover, the “Effects Wheat” value in the assay with wheat amounted to 1. The “Effects Cotton” value in the assay on cotton turned out to be 0. In addition, the “Effects Velvetleaf” value in the assay with velvetleaf [1] amounted to 4; in the assay on velvetleaf [4] it was 5. For the same molecule, the “Effect Monochoria” value with monochoria amounted to 5. The entries for the “Effects Blackgrass” value with blackgrass [2] and with blackgrass [6] were 2 and 4, respectively. In addition, the entries for the “Effects Annual bluegrass” value in the assay with annual bluegrass [3] and with annual bluegrass [5] were 5 and 3, respectively. The “Effects Green foxtail” value in the assay with green foxtail is 5. The “Effect Barnyardgrass” value in the assay on barnyardgrass came to 5. The “Effects Livid amaranth” value in the assay with livid amaranth came out at 4. The “Effects Common lambsquarters” value in the assay on common lambsquartes [7] stood at 5; in the assay on common lambsquartes [8], 4. In the assay with morning glory, the “Effects Morning glory” value is listed as 3.
With `CCCC(Oc1cccc(C(F)(F)F)c1)c1nc2cc(F)c(C(F)(F)F)cc2o1` (stereo not shown) [Compound 474], the “Effects Solgum” value in the assay on solgum is recorded as 1. The “Effects Corn” value in the assay with corn is listed as 2. The “Effects Soybean” value in the assay on soybean stood at 2. In the assay with sugar beat, the “Effects Sugar beat” value was determined as 5. In addition, in the assay on wheat, the “Effects Wheat” value came out at 1. Moreover, in the assay on cotton, the “Effects Cotton” value amounted to 1. For the same molecule, the figures for the “Effects Velvetleaf” value in the assay with velvetleaf [1] and with velvetleaf [4] were 2 and 5, respectively. For the same molecule, the “Effect Monochoria” value in the assay on monochoria came to 5. Further, the “Effects Blackgrass” value is on record as 2 in the assay with blackgrass [2] and 5 in the assay on blackgrass [6]. Further, the figures for the “Effects Annual bluegrass” value in the assay with annual bluegrass [3] and in the assay on annual bluegrass [5] were 5 and 3, respectively. Further, the “Effects Green foxtail” value in the assay on green foxtail worked out at 5. Moreover, the “Effect Barnyardgrass” value with barnyardgrass stood at 2. Moreover, the “Effects Livid amaranth” value with livid amaranth amounted to 5. The “Effects Common lambsquarters” value with common lambsquartes [7] and with common lambsquartes [8] was 5 throughout. Besides, the “Effects Morning glory” value in the assay on morning glory is on record as 5.
As for `CCC(Oc1ccc(F)c(C(F)(F)F)c1)c1nc2cc(Br)ccc2o1` (stereo not shown) [Compound 165], the “Effects Solgum” value in the assay on solgum is 1. Moreover, in the assay on corn, the “Effects Corn” value amounted to 2. For the same molecule, the “Effects Soybean” value with soybean is reported as 0. In addition, in the assay with sugar beat, the “Effects Sugar beat” value was 5. The “Effects Wheat” value in the assay on wheat turned out to be 0. For the same molecule, the “Effects Cotton” value in the assay with cotton was determined as 0. For the same molecule, the figures for the “Effects Velvetleaf” value with velvetleaf [1] and in the assay on velvetleaf [4] were 3 and 1, respectively. In addition, the “Effect Monochoria” value with monochoria turned out to be 5. The “Effects Blackgrass” value with blackgrass [2] is reported as 3; with blackgrass [6] it was 4. Moreover, the entries for the “Effects Annual bluegrass” value in the assay with annual bluegrass [3] and with annual bluegrass [5] were 5 and 2, respectively. The “Effects Green foxtail” value in the assay with green foxtail is 5. Further, in the assay with barnyardgrass, the “Effect Barnyardgrass” value is 4. In addition, the “Effects Livid amaranth” value in the assay with livid amaranth is on record as 4. The “Effects Common lambsquarters” value with common lambsquartes [7] and with common lambsquartes [8] was 3 each time. Also, the “Effects Morning glory” value in the assay with morning glory is listed as 4.
For `CCCC(Oc1cccc(C(F)(F)F)c1)c1nc2cc(C#N)ccc2o1` (stereo not shown) [Compound 192], the “Effects Solgum” value in the assay with solgum amounted to 2. Further, the “Effects Corn” value with corn is listed as 2. Further, in the assay on soybean, the “Effects Soybean” value came to 0. In the assay with sugar beat, the “Effects Sugar beat” value stood at 5. Further, the “Effects Wheat” value in the assay with wheat is on record as 2. For the same molecule, the “Effects Cotton” value in the assay on cotton was 1. For the same molecule, the “Effects Velvetleaf” value was 3 with velvetleaf [1] and 5 with velvetleaf [4]. Further, the “Effect Monochoria” value in the assay on monochoria turned out to be 5. Further, the “Effects Blackgrass” value is 2 in the assay with blackgrass [2] and 5 with blackgrass [6]. In addition, the entries for the “Effects Annual bluegrass” value with annual bluegrass [3] and with annual bluegrass [5] were 5 and 4, respectively. For the same molecule, the “Effects Green foxtail” value with green foxtail was 5. In addition, the “Effect Barnyardgrass” value in the assay with barnyardgrass was 5. In addition, the “Effects Livid amaranth” value with livid amaranth is given as 4. Moreover, the figures for the “Effects Common lambsquarters” value in the assay on common lambsquartes [7] and in the assay on common lambsquartes [8] were 5 and 4, respectively. In addition, in the assay on morning glory, the “Effects Morning glory” value is reported as 2.
